# Measurements from patent US20080227797A1, “Pyridopyrimidine Derivatives as Pde4 Inhibitors for the Treatment of Inflammatory and Immune Diseases” (ASTRAZENECA AB, priority 2005, published 2008).
# Biological target: recombinant Human Phosphodiesterase B2 (PDE4B2) (Homo sapiens, UniProt Q07343)
# Assay: Human Phosphodiesterase B2 Alpha Screen Assay
# Type: biochemical
# Settings: cAMP substrate, Alpha Screen cAMP kit, 60 minutes at room temperature
# Method: Human Phosphodiesterase B2 Alpha Screen Assay
# The assay uses recombinant Human Phosphodiesterase B2 (PDE4B2) produced in house (PrAZL0133), stored at −20° C. The substrate uses cAMP, part of the Alpha Screen cAMP kit (Perkin Elmer, Cat# 6760625M), stored at 4° C. The Alpha Screen kit also includes biotinylated cAMP, acceptor and donor beads.
# The assay additions were as follows: Test compounds and controls were added to white 384-well flat-bottom plates (Greiner, Cat# 781075), 0.2 μl in 100% DMSO, followed by 10 μl PDE4B2 in reaction buffer. The reaction buffer constitution was: 50 mM Tris (pH 7.5), 8.3 mM MgCl2, 1.7 mM EGTA and 0.01% (w/v) Brij®35. The enzyme and the compounds were incubated at room temperature for 15 minutes. Then 10 μl cAMP in reaction buffer was added. The assay was stopped after 60 minutes incubation at room temperature by adding 10 μl acceptor beads in detection buffer with 40 mM EDTA. The detection buffer constitution was: 5 mM Tris (pH 7.5), 0.1% (w/v) BSA and 0.1% (v/v) Tween 20. This addition followed by an addition of 10 μl donor beads in detection buffer, with biotinylated cAMP. The plates were then incubated, dark at room temperature, for 5 hours followed by measurement on a Fusion™-α analyser. IC50 values (presented in Table 1) were determined using Xlfit curve fitting using model 205.
# Sequence of recombinant Human Phosphodiesterase B2 (PDE4B2) (Q07343 1-564 isoform Q07343-2): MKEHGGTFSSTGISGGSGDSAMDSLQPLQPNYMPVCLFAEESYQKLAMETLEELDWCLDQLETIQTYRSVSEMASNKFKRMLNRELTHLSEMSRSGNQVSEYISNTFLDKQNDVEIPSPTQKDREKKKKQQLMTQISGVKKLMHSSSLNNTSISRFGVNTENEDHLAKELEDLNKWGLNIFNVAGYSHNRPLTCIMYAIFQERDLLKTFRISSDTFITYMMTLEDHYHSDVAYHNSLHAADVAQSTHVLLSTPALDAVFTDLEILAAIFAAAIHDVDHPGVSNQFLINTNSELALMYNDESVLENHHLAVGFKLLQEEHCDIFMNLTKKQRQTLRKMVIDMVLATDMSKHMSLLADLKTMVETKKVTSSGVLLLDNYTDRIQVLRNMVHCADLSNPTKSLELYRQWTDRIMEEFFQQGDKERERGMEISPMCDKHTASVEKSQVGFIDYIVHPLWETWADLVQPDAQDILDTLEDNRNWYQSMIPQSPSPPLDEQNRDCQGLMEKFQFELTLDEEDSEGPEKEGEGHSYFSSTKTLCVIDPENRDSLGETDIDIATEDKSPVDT
row,IC50,SMILES
1,0.9 nM,"O=C(N[C@H]1CC[C@@H](n2c(=O)c3cc(F)cnc3n(-c3ccc(F)c(F)c3)c2=O)CC1)C(O)c1ccccc1 (relative stereo) [Example 2, N-{cis-4-[1-(3,4-difluorophenyl)-6-fluoro-2,4-dioxo-1,4-dihydropyrido[2,3-d]pyrimidin-3(2H)-yl]cyclohexyl}-2-hydroxy-2-phenylacetamide]"
2,129 nM,"Cc1ccc(O)c(C(=O)N[C@H]2CC[C@@H](N3C(=O)c4cc(F)cnc4N(c4ccc(F)c(F)c4)[S+]3[O-])CC2)c1 (relative stereo) [Example 46, N-{cis-4-[1-(3,4-Difluorophenyl)-6-fluoro-2-oxido-4-oxo-1,4-dihydro-3H-pyrido[2,3-c][1,2,6]thiadiazin-3-yl]cyclohexyl}-2-hydroxy-5-methylbenzamide]"
3,6.01 nM,"CN1CCCC(C(=O)N[C@H]2CC[C@@H](n3c(=O)c4cc(F)cnc4n(-c4ccc(F)c(F)c4)c3=O)CC2)C1 (relative stereo) [Example 99, N-{cis-4-[1-(3,4-difluorophenyl)-6-fluoro-2,4-dioxo-1,4-dihydropyrido[2,3-d]pyrimidin-3(2H)-yl]cyclohexyl}-1-methylpiperidine-3-carboxamide]"
4,4.9 nM,"O=C(N[C@H]1CC[C@@H](n2c(=O)c3cc(F)cnc3n(-c3ccc(F)c(F)c3)c2=O)CC1)c1cc(CO)ccc1O [Example 1, N-{cis-4-[1-(3,4-difluorophenyl)-6-fluoro-2,4-dioxo-1,4-dihydropyrido[2,3-d]pyrimidin-3(2H)-yl]cyclohexyl}-2-hydroxy-5-(hydroxymethyl)benzamide]"
5,16.3 nM,"O=C(CO)N[C@H]1CC[C@@H](n2c(=O)c3cc(F)cnc3n(-c3ccc(F)c(F)c3)c2=O)CC1 [Example 3, N-{cis-4-[1-(3,4-difluorophenyl)-6-fluoro-2,4-dioxo-1,4-dihydropyrido[2,3-d]pyrimidin-3(2H)-yl]cyclohexyl}-2-hydroxyacetamide]"
6,5 nM,"O=C(N[C@H]1CC[C@@H](n2c(=O)c3cc(F)cnc3n(-c3ccc(F)c(F)c3)c2=O)CC1)c1cc(Cl)ccc1O [Example 4, 5-chloro-N-{cis-4-[1-(3,4-difluorophenyl)-6-fluoro-2,4-dioxo-1,4-dihydropyrido[2,3-d]pyrimidin-3(2H)-yl]cyclohexyl}-2-hydroxybenzamide]"
7,2.2 nM,"O=C(N[C@H]1CC[C@@H](n2c(=O)c3cc(F)cnc3n(-c3ccc(F)c(F)c3)c2=O)CC1)c1cccc(O)c1 [Example 5, N-{cis-4-[1-(3,4-difluorophenyl)-6-fluoro-2,4-dioxo-1,4-dihydropyrido[2,3-d]pyrimidin-3(2H)-yl]cyclohexyl}-3-hydroxybenzamide]"
8,2.3 nM,"O=C(N[C@H]1CC[C@@H](n2c(=O)c3cc(F)cnc3n(-c3ccc(F)c(F)c3)c2=O)CC1)c1ccc(O)cc1 [Example 6, N-{cis-4-[1-(3,4-difluorophenyl)-6-fluoro-2,4-dioxo-1,4-dihydropyrido[2,3-d]pyrimidin-3(2H)-yl]cyclohexyl}-4-hydroxybenzamide]"
9,3 nM,"COC(=O)c1ccccc1C(=O)N[C@H]1CC[C@@H](n2c(=O)c3cc(F)cnc3n(-c3ccc(F)c(F)c3)c2=O)CC1 [Example 7, methyl 2-[({cis-4-[1-(3,4-difluorophenyl)-6-fluoro-2,4-dioxo-1,4-dihydropyrido[2,3-d]pyrimidin-3(2H)-yl]cyclohexyl}amino)carbonyl]benzoate]"
10,2.2 nM,"O=C(Cc1ccc(O)cc1)N[C@H]1CC[C@@H](n2c(=O)c3cc(F)cnc3n(-c3ccc(F)c(F)c3)c2=O)CC1 [Example 8, N-{cis-4-[1-(3,4-difluorophenyl)-6-fluoro-2,4-dioxo-1,4-dihydropyrido[2,3-d]pyrimidin-3(2H)-yl]cyclohexyl}-2-(4-hydroxyphenyl)acetamide]"
11,1.3 nM,"Cc1ccc(C(=O)N[C@H]2CC[C@@H](n3c(=O)c4cc(F)cnc4n(-c4ccc(F)c(F)c4)c3=O)CC2)c(O)c1 [Example 9, N-{cis-4-[1-(3,4-difluorophenyl)-6-fluoro-2,4-dioxo-1,4-dihydropyrido[2,3-d]pyrimidin-3(2H)-yl]cyclohexyl}-2-hydroxy-4-methylbenzamide]"
12,2.6 nM,"O=C(N[C@H]1CC[C@@H](n2c(=O)c3cc(F)cnc3n(-c3ccc(F)c(F)c3)c2=O)CC1)c1ccccc1O [Example 10, N-{cis-4-[1-(3,4-difluorophenyl)-6-fluoro-2,4-dioxo-1,4-dihydropyrido[2,3-d]pyrimidin-3(2H)-yl]cyclohexyl}-2-hydroxybenzamide]"
13,3.4 nM,"O=C(N[C@H]1CC[C@@H](n2c(=O)c3cc(F)cnc3n(-c3ccc(F)c(F)c3)c2=O)CC1)c1ncccc1O [Example 11, N-{cis-4-[1-(3,4-difluorophenyl)-6-fluoro-2,4-dioxo-1,4-dihydropyrido[2,3-d]pyrimidin-3(2H)-yl]cyclohexyl}-3-hydroxypyridine-2-carboxamide]"
14,2.2 nM,"O=C(N[C@H]1CC[C@@H](n2c(=O)c3cc(F)cnc3n(-c3ccc(F)c(F)c3)c2=O)CC1)c1ccc(O)c(Cl)c1 [Example 12, 3-chloro-N-{cis-4-[1-(3,4-difluorophenyl)-6-fluoro-2,4-dioxo-1,4-dihydropyrido[2,3-d]pyrimidin-3(2H)-yl]cyclohexyl}-4-hydroxybenzamide]"
15,3.2 nM,"Cc1c(O)cccc1C(=O)N[C@H]1CC[C@@H](n2c(=O)c3cc(F)cnc3n(-c3ccc(F)c(F)c3)c2=O)CC1 [Example 13, N-{cis-4-[1-(3,4-difluorophenyl)-6-fluoro-2,4-dioxo-1,4-dihydropyrido[2,3-d]pyrimidin-3(2H)-yl]cyclohexyl}-3-hydroxy-2-methylbenzamide]"
16,1.5 nM,"COc1cc(C(=O)N[C@H]2CC[C@@H](n3c(=O)c4cc(F)cnc4n(-c4ccc(F)c(F)c4)c3=O)CC2)ccc1O [Example 14, N-{cis-4-[1-(3,4-difluorophenyl)-6-fluoro-2,4-dioxo-1,4-dihydropyrido[2,3-d]pyrimidin-3(2H)-yl]cyclohexyl}-4-hydroxy-3-methoxybenzamide]"
17,1.3 nM,"Cc1ccc(C(=O)N[C@H]2CC[C@@H](n3c(=O)c4cc(F)cnc4n(-c4ccc(F)c(F)c4)c3=O)CC2)cc1O [Example 15, N-{cis-4-[1-(3,4-difluorophenyl)-6-fluoro-2,4-dioxo-1,4-dihydropyrido[2,3-d]pyrimidin-3(2H)-yl]cyclohexyl}-3-hydroxy-4-methylbenzamide]"
18,2.1 nM,"COc1cccc(O)c1C(=O)N[C@H]1CC[C@@H](n2c(=O)c3cc(F)cnc3n(-c3ccc(F)c(F)c3)c2=O)CC1 [Example 16, N-{cis-4-[1-(3,4-difluorophenyl)-6-fluoro-2,4-dioxo-1,4-dihydropyrido[2,3-d]pyrimidin-3(2H)-yl]cyclohexyl}-2-hydroxy-6-methoxybenzamide]"
19,1.8 nM,"COc1cccc(C(=O)N[C@H]2CC[C@@H](n3c(=O)c4cc(F)cnc4n(-c4ccc(F)c(F)c4)c3=O)CC2)c1O [Example 17, N-{cis-4-[1-(3,4-difluorophenyl)-6-fluoro-2,4-dioxo-1,4-dihydropyrido[2,3-d]pyrimidin-3(2H)-yl]cyclohexyl}-2-hydroxy-3-methoxybenzamide]"
20,2.7 nM,"O=C(N[C@H]1CC[C@@H](n2c(=O)c3cc(F)cnc3n(-c3ccc(F)c(F)c3)c2=O)CC1)c1ccc(Cl)cc1O [Example 18, 4-chloro-N-{cis-4-[1-(3,4-difluorophenyl)-6-fluoro-2,4-dioxo-1,4-dihydropyrido[2,3-d]pyrimidin-3(2H)-yl]cyclohexyl}-2-hydroxybenzamide]"
21,2 nM,"COc1ccc(C(=O)N[C@H]2CC[C@@H](n3c(=O)c4cc(F)cnc4n(-c4ccc(F)c(F)c4)c3=O)CC2)c(O)c1 [Example 19, N-{cis-4-[1-(3,4-difluorophenyl)-6-fluoro-2,4-dioxo-1,4-dihydropyrido[2,3-d]pyrimidin-3(2H)-yl]cyclohexyl}-2-hydroxy-4-methoxybenzamide]"
22,3.6 nM,"O=C(N[C@H]1CC[C@@H](n2c(=O)c3cc(F)cnc3n(-c3ccc(F)c(F)c3)c2=O)CC1)c1cc(F)ccc1O [Example 20, N-{cis-4-[1-(3,4-difluorophenyl)-6-fluoro-2,4-dioxo-1,4-dihydropyrido[2,3-d]pyrimidin-3(2H)-yl]cyclohexyl}-5-fluoro-2-hydroxybenzamide]"
23,3.6 nM,"CC(C)C[C@H](O)C(=O)N[C@H]1CC[C@@H](n2c(=O)c3cc(F)cnc3n(-c3ccc(F)c(F)c3)c2=O)CC1 [Example 21, (2S)-N-{cis-4-[1-(3,4-difluorophenyl)-6-fluoro-2,4-dioxo-1,4-dihydropyrido[2,3-d]pyrimidin-3(2H)-yl]cyclohexyl}-2-hydroxy-4-methylpentanamide]"
24,1 nM,"O=C(N[C@H]1CC[C@@H](n2c(=O)c3cc(F)cnc3n(-c3ccc(F)c(F)c3)c2=O)CC1)[C@H](O)C1CCCCC1 [Example 22, (2R)-2-cyclohexyl-N-{cis-4-[1-(3,4-difluorophenyl)-6-fluoro-2,4-dioxo-1,4-dihydropyrido[2,3-d]pyrimidin-3(2H)-yl]cyclohexyl}-2-hydroxyacetamide]"
25,3.8 nM,"COC(=O)CCC(=O)N[C@H]1CC[C@@H](n2c(=O)c3cc(F)cnc3n(-c3ccc(F)c(F)c3)c2=O)CC1 [Example 23, methyl 4-({cis-4-[1-(3,4-difluorophenyl)-6-fluoro-2,4-dioxo-1,4-dihydropyrido[2,3-d]pyrimidin-3(2H)-yl]cyclohexyl}amino)-4-oxobutanoate]"
